Patent US20070218504A1, “HUMAN LEPTIN-DERIVED POLYPEPTIDES AND USES THEREOF” (UNIVERSITY OF PITTSBURGH, priority 2006, published 2007)
Entries after “also recorded” stand apart in the source; their conditions may differ.

Assays:
[1] = system: tyrosine phosphorylation of STAT3; assay: Leptin-induced tyrosine phosphorylation of STAT3 in HEK293 cells over-expressing OB-Rb in the presence of CRP (Western blot); type: cell-based, human
Method: (§1) To determine if the interaction between CRP and leptin dampens the cellular actions of leptin, the ability of leptin to stimulate tyrosine phosphorylation of STAT3 and PI3-kinase activity was assessed in the presence of CRP in vitro. HEK293 cells over-expressing OB-Rb were serum starved for 2 hours before addition of leptin and CRP (CHEMICON or EMD Biosciences). Leptin, in the presence or absence of CRP, was pre-incubated in μ-MEM (with additional 1 mM Ca^2+) for 30 minutes at 37° C. before being applied to the cells. After a 30-minute incubation with leptin, the cells were harvested in lysis buffer (18). The resultant protein extract was subjected to a Western blot analysis using an anti-phospho-STAT3 specific antibody (Cell Signaling, Beverly, Mass.). For studies involving primary hypothalamic neurons, the hypothalamus from rats was surgically isolated immediately after euthanasia, and placed in the DMEM for incubation with leptin in the presence or absence of CRP.

[2] = system: leptin signaling in primary hypothalamic neurons; assay: Phospho-STAT3 and PI3-kinase assays of leptin signaling in primary hypothalamic neurons; type: cell-based, rat
Method: as §1

ob/ob mice [3] = assay: Subcutaneous micro-osmotic pump infusion of human CRP and human leptin in ob/ob mice; type: in vivo, mouse; conditions: for effect of CRP alone on food intake and body weight: CRP without leptin
Method: Micro-osmotic pumps (#1007D, DURECT, Cupertino, Calif.) were subcutaneously implanted into ob/ob or wild-type mice according to the instructions of the manufacturer. The osmotic pumps were pre-filled with saline, CRP, leptin or leptin plus CRP. Food intake (24-hour), body weight, and body temperature were monitored daily post-surgery. Blood glucose concentrations were measured using tail-vein blood samples using a Precision Plus® glucose meter, product of Medisense (Abbot Park, Ill.).
Human- and mouse-leptin concentrations were measured using ELISA kits from CHEMICON (Temecular, Calif.) and R&D Systems (Minneapolis, Minn.), respectively, accordingly to the instructions of the manufacturers. Serum mouse insulin and human CRP were determined with ELISA kits from LINCO Research (St. Charles, Mo.) and HELICA (Fullerton, Calif.), respectively. Serum- and tissue-triglycerides were determined with the protocols described previously (19).
Various amounts of human CRP, either alone or with human leptin, were administered via micro-osmotic pumps implanted s.c. into 8-week old ob/ob mice.
The above in vivo data were harvested from mice experiencing infusions of a mixture of CRP and leptin stored in a single mini-osmotic pump. Human CRP and leptin were also infused in separate osmotic pumps. […] Also compared to infusion from a single pump, detectable effects of human CRP on leptin were realized later, likely due to the time required to achieve diffusion and binding equilibrium.

CRP-transgenic mice = assay: Human leptin infusion in mice transgenically expressing human CRP and wild-type littermates; type: in vivo, mouse
Method: To complement the in vivo studies further, the satiety and weight-reducing functions of human leptin were evaluated in mice producing transgenically expressed human CRP (24). The average baseline serum concentration of human CRP in these mice was approximately 15 μg/ml. […] To evaluate the effects of human leptin in the transgenic mice, a dose of 0.6 mg/kg/day, which has been known to maximally but only temporarily affected energy balance in wild-type mice (25), was infused. […] At the end of infusion, the total human leptin concentration in the sera of transgenic mice averaged at 7.6 ng/ml, which was higher than that in the wild-type littermates at 3.2 ng/ml.

[4] = system: tyrosine phosphorylation of STAT3 in the hypothalamic tissues; assay: Tyrosine phosphorylation of STAT3 in hypothalamic tissues after i.c.v. injection (Western blot); type: in vivo, mouse
Method: The hypothalamic tissues were surgically dissected right after sacrificing the mice. A portion of each tissue was extracted for protein in a protein lysis buffer. The activation of STAT3 was evaluated using Western blot assays with an antibody against phospho-tyrosine-STAT3 as described above (Cell Signaling, Beverly, Mass.). The membrane was striped and applied with an antibody against STAT3 to evaluate the overall level of STAT3 (Cell Signaling, Beverly, Mass.).
To determine whether the interaction between human CRP and leptin dampens the cellular actions of leptin, an assessment was made of the ability of leptin to stimulate tyrosine phosphorylation of STAT3 in the hypothalamic tissues. As described above, human CRP at 2.3 μg/injection or PBS was pre-injected via i.c.v., followed by an injection of human leptin or mouse leptin, each at 100 ng/injection. Subsequently, the hypothalamic tissues were dissected and immediately placed into liquid nitrogen for a rapid freezing. A portion of the frozen tissue was homogenized in a protein lysis buffer for the extraction of proteins. The protein extract was then subjected to Western blot assay as described above.

ob/ob mice [5] = assay: Co-infusion of polypeptide E with human CRP and leptin through mini-osmotic pumps into ob/ob mice; type: in vivo, mouse
Method: FIG. 11. […] Infusion dosages for human CRP and leptin were 48 μg/day/mouse and 12 μg/day/mouse, respectively. The infusion rate for Pep-E (P) was 24 μg/day/mouse (medium dosage, “m”) and 48 μg/day/mouse (high dosage, “h”). Food-intake (A and C) and body weight (B and D) were monitored daily throughout the infusion. The arrows in A-D indicate the day of surgery. At the end of infusion, blood samples were collected for the measurement of blood-glucose, human CRP, and human leptin. The serum concentrations of human CRP and human leptin were 0.85±0.1 μg/ml and 18 ng±2 ng/ml, respectively. […] Also shown is glucose concentration from mice infused with human CRP and leptin but not with Pep-E.
In the in vivo experiment, polypeptide E was co-infused through mini-osmotic pumps with human CRP and leptin into the ob/ob mice. Food intake in the period of 24 hours and body weight were followed during the infusion period (FIGS. 11A-11D).

ob/ob mice [6] = assay: Intracerebralventricular (i.c.v.) injection of human CRP and leptin in ob/ob mice, food intake and body weight; type: in vivo, mouse; conditions: ob/ob mice

## human CRP: human C-reactive protein, purified preparation from a commercial source
[1]; excess EGTA added to the medium
  calcium dependence of attenuation of leptin signaling: requires the presence of calcium ions
[1]; HEK293 OB-Rb
  effect of CRP on human leptin-induced tyrosine phosphorylation of STAT3: attenuating effects; also recorded: caused the reduction of leptin-stimulated STAT3 activation; also recorded: attenuate
[1]; HEK293 OB-Rb, listed as Human CRP
  effect of CRP on human leptin-induced tyrosine phosphorylation of STAT3: suppressed the activation of STAT3; also recorded: suppresses activation of STAT3
[1]; murine/mouse leptin, HEK293 OB-Rb
  effect of CRP on murine leptin-induced tyrosine phosphorylation of STAT3: does not have attenuation effect; also recorded: unable to block
[2]
  effect on leptin signaling (phospho-STAT3, PI3-kinase): specifically inhibited leptin signaling
ob/ob mice [3]; food intake, body weight, blood glucose, serum insulin, matched serum CRP
  effect of human CRP on physiological actions of human leptin, separate osmotic pumps: attenuate the physiological actions of human leptin
ob/ob mice [3]; human CRP 10 μg/day with human leptin, single pump
  effect of co-infused human CRP on leptin-induced reduction of food intake and body weight, low dosage: only partially attenuated
ob/ob mice [3]; human CRP 40 μg/day
  effect on increase of rectal temperature induced by leptin: completely blocked
ob/ob mice [3]; human CRP 40 μg/day with human leptin, single pump
  effect of co-infused human CRP on leptin actions to restrain appetite and induce weight loss, high dosage: completely block
ob/ob mice [3]; ob/ob mice
  activation of STAT3 in hypothalamic tissues on co-infusion of CRP with leptin: inhibited
  effect of CRP alone on food intake and body weight: did not affect food intake or body weight
ob/ob mice [3]; ob/ob mice, listed as CRP
  effect of CRP alone on food intake and body weight: does not influence food intake and body weight
ob/ob mice [3]; ob/ob mice, co-infusion with leptin
  effect of co-infused human CRP on leptin's alleviation of diabetes: reverted these effects
CRP-transgenic mice; CRP transgenic mice, no human leptin
  effect of human CRP alone on food intake and body weight: did not meaningfully affect
CRP-transgenic mice; mice transgenically expressing human CRP
  average baseline serum concentration of human CRP: approximately 15 μg/ml
[4]; human CRP 2.3 μg/injection
  effect of CRP pre-injection on human leptin-induced STAT3 activation: drastically diminished
  effect of CRP pre-injection on mouse leptin-induced STAT3 activation: did not block
ob/ob mice [5]; end of infusion, 48 μg/day/mouse
  serum concentration of human CRP: 850 ± 100 ng/mL
ob/ob mice [5]; human CRP 48 μg/day/mouse, leptin 12 μg/day/mouse
  effect of human CRP on satiety and weight-reducing effects of human leptin in the absence of the polypeptide: able to block the satiety and weight-reducing effects
ob/ob mice [6]
  effect of i.c.v. human CRP on satiety and weight-reducing effects induced by mouse leptin: did not influence

## human leptin: human recombinant leptin
ob/ob mice [3]; all groups infused with leptin (leptin only or leptin plus CRP), separate osmotic pumps
  total human leptin concentrations in the sera: 15 to 20 ng/mL
ob/ob mice [3]; ob/ob mice
  effect of leptin on diabetes (blood glucose, plasma insulin, serum- and hepatic triglyceride): alleviated diabetes
ob/ob mice [3]; ob/ob mice, 0.3 mg/kg/day s.c. infusion, 6 days
  effect of human leptin on food-intake and body weight: expected reduction in food-intake and body weight
CRP-transgenic mice; 0.6 mg/kg/day infusion, CRP-transgenic mice
  physiological effects of human leptin in CRP-transgenic mice: completely blunted
CRP-transgenic mice; 0.6 mg/kg/day infusion, wild-type littermates
  effect of human leptin on food intake, body weight, epidydimal fat-pad weight in wild-type littermates: expected reductions in food intake, body weight, and epidydimal fat-pad weight
CRP-transgenic mice; end of infusion, CRP transgenic mice
  total human leptin concentration in sera, transgenic mice: 7.6 ng/mL
CRP-transgenic mice; end of infusion, wild-type littermates
  total human leptin concentration in sera, wild-type littermates: 3.2 ng/mL
[4]; human leptin 100 ng/injection following PBS
  level of phosph-STAT3 in hypothalamic tissues after leptin: sharp increase
